Experimental data from patent US10799456B2, “Multiple drug lipid nanoparticle composition and related methods for extended drug levels in blood and lymph tissue” (priority 2015, dated 2020).

Legend:
[1] = % Drug association to particles by assembly method; type: physicochemical
Source text: Select one or two drugs hydrophilic and water soluble (Class 2) drugs listed in Table 19 (for example, tenofovir and/or emtricitabine and/or lamivudine). • 3. Select the excipient combination (for example, 9 parts DSPC and 1 part PEG-DSPE). • 4. Prepare a single-phase miscible solvent that enables full solubilization of the chosen water-insoluble Class 1 drugs and water soluble Class 2 drugs plus the excipients from step 3. Examples include CHCl3:Methanol:Water (65:35:4); CHCl3:Ethanol:Water (65:35:4); CHCl3:Propanol:Water (65:35:4); and CHCl3:Hexanol:Water (65:35:4). • 5. The components in Steps 1, 2 and 3 are solubilized with the miscible solvent in step 4. • 6. The drugs (steps 1 and 2) as well as excipients (step 3) and the miscible solvent (step 4) are dried under reduced pressure with assistance of a combination of heat, reduced pressure and/or aerosolization to provide for uniformity and efficiency of drying. • 7. The dehydrated composition is heated above gel-to-liquid phase transition temperature of the excipient mixture (e.g., 50° C.). • 8. A buffered saline solution is prepared and the temperature is equilibrated to the same temperature as dehydrated composition. • 9. The buffered saline solution and dehydrated composition are gradually combined and maintained at the defined (e.g., 50° C.) for 3 hr. • 10. The resulting hydrated multi-drug lipid nanoparticles are size-reduced by sheering or forcing through small orifice or pressurized filter apparatus while maintaining at the defined temperature (in liquid phase of lipidic excipients).

[2] = DPH fluorescence anisotropy, lipid phase transition temperature; type: physicochemical
Experimental: To evaluate the change in membrane fluidity due to drug insertion into the lipid membrane, 0.1% 1,6-diphenyl-1,3,5-hexatriene (DPH) was used as an intra-membrane probe.^18,20 Briefly, to incorporate DPH into the lipid membrane, 2 μL of 2 mM DPH in tetrahydrofuran was added to the lipid nanoparticle suspension with or without drug. The final preparation was incubated at 60° C. (above the 55° C. DSPC phase transition temperature) for 30 min, then slowly cooled to room temperature over 15 min. […] A water-jacketed cuvette holder connected to a circulating water bath (PolyScience, model 1162, Niles, Ill.) was used to control the temperature within the cuvette, which was measured by a digital thermometer. The cuvette was allowed to equilibrate for 10 min before taking each temperature reading. The fluorescence intensities, both parallel and perpendicular to the emission light, were measured continuously with a F-4500 fluorescence spectrometer (Hitachi, Minato-ku, Tokyo, Japan) set at kex/em=360/430 nm; both excitation and emission slits were 5 nm. Fluorescence anisotropy response, r, was calculated by the equation: […]
The fluorescence anisotropy response versus temperature curve was generated by non-linear regression using SigmaPlot software (11.0 version, Systat Software, Inc., San Jose, Calif.). […]

[3] = Drug incorporation efficiency into lipid-drug nanoparticles (dialysis); type: physicochemical; settings: for Incorporation efficiency (%): DSPC:DSPE-mPEG2000 8:2
Experimental: J Acquir Immune Defic Syndr. […] Journal of pharmaceutical sciences. […] The AAPS journal. […] Residual solvent was removed overnight by vacuum desiccation. The dried lipid-drug film was then rehydrated with 0.9% NaCl containing 20 mM sodium bicarbonate (pH 7.4). The lipid-drug samples were allowed to hydrate at 60° C. for 2 h. Then samples were sonicated (laboratory scale) or homogenized (preclinical scale) to achieve a homogenous suspension.
The incorporation efficiency was calculated as the ratio of the amount of incorporated drug over the total amount of drug loaded multiplied by 100%.

[4] = Particle size by photon correlation spectroscopy; type: physicochemical
Experimental: The mean particle size of lipid-drug nanoparticles and liposome control was determined by photon correlation spectroscopy (PCS) using a NICOMP™ 380ZLS instrument (NICOMP Particle Sizing Systems, Santa Barbara, Calif.). […] Samples were diluted with the same buffer to an identical final volume to analyze concentration effects. The light scattering data were analyzed based on intensity-weight NICOMP size distribution and expressed as a mean±SD.
Briefly, lipids and protease inhibitors were dissolved in chloroform:ethanol (3:1 v/v) and PMPA was added from a stock solution of 30 mg/ml in aqueous 150 mM NaHCO3. Solvent was removed by rotary evaporation and vacuum desiccation. The dry film was rehydrated to 200 mM lipid in 0.4% NaCl with 20 mM NaHCO3 buffer at 60° C. Particle size was reduced at 60° C. by bath sonication (laboratory scale) or high-pressure homogenization using an Emulsiflex-05 (Avestin, Ottawa, Canada) (clinical scale). LNPs were maintained at 60° C. to anneal for 30 min prior to cooling and stored at 4° C. Particle size was determined by photon correlation spectroscopy using a NICOMP 380 ZLS (Particle Sizing Systems, Santa Barbara, Calif.).

[5] = Tables 20 and 21; cited from earlier work
[6] = Octanol-buffer distribution coefficient (shake-flask); type: physicochemical; settings: room temperature
Experimental: The octanol-buffer drug distribution coefficient at room temperature was determined by a small-scale, shake-flask method described by Dittert L W, et al. Phase Solubility Technique in Studying the Formation of Complex Salts of Triamterene. Journal of pharmaceutical sciences. […] Briefly, phosphate-buffered saline (PBS) at pH 3, 5, and 7.4 was used as the aqueous phase. […] The mixture was centrifuged at 14,000 rpm (18,078 g) (Beckman Coulter™ Microfuge® 18 centrifuge, Beckman Coulter Inc., Brea, Calif.) to separate octanol and the aqueous phase. The drug concentration in the two phases was determined with high-performance liquid chromatography tandem mass spectrometry (HPLC/MS/MS). The distribution coefficient was calculated as the ratio of the drug concentration in the octanol phase to the drug concentration in the aqueous phase. Triplicate samples were used at each pH.

Darunavir [Darunavir (DRV)]
% Drug Association to Particles, LNPs from mixture of dual solvent method [1]: 97% | reduction of TC ([2]; lipid-to-drug 8:1, vs control LNPs): 1.6 °C | phase transition temperature (TC) ([2]; lipid-to-drug molar ratio 8:1): 53.3 °C | Incorporation efficiency (%) ([3]; lipid:drug 5:1 mol/mol): 88.1 ± 3.8% | Incorporation efficiency (%) ([3]; lipid:drug 5:1 mol/mol, listed as DRV): 88.1% | Incorporation efficiency (%) ([3]; lipid:drug 8:1 mol/mol): 94.4 ± 2.8% | Incorporation efficiency (%) ([3]; lipid:drug 8:1 mol/mol, listed as DRV): 94.4% | Incorporation efficiency (%) ([3]; lipid:drug 20:1 mol/mol): 96.6 ± 4.8% | Incorporation efficiency (%) ([3]; lipid:drug 20:1 mol/mol, listed as DRV): 96.6% | drug incorporation efficiency ([3]; prepared at 0.5 mM lipid): 58% | drug incorporation efficiency ([3]; prepared at 5 mM lipid): 95% | Particle size (nm) ([4]; lipid:drug 5:1 mol/mol): 33.6 ± 3.1 nm | Particle size (nm) ([4]; lipid:drug 8:1 mol/mol): 35.6 ± 3.9 nm | Particle size (nm) ([4]; lipid:drug 20:1 mol/mol): 35.6 ± 3.7 nm | Hydrophobicity (Log P) [5]: 1.8 | Log D (measured) ([6]; pH 3, octanol/PBS): 2.98 | Log D (measured) ([6]; pH 5, octanol/PBS): 2.80 | Log D (measured) ([6]; pH 7.4, octanol/PBS): 2.84
